According to ChEMBL document CHEMBL3400130, “Identification of apoptosis signal-regulating kinase 1 (ASK1) inhibitors among the derivatives of benzothiazol-2-yl-3-hydroxy-5-phenyl-1,5-dihydro-pyrrol-2-one” (Bioorg Med Chem, 2015):

What was measured:
[1] = target: T1, Aurora kinase A (Homo sapiens) (UniProt O14965); test: Inhibition of Aurora A (unknown origin) assessed as residual enzyme activity at 10 uM using kemptide substrate
T1 sequence (whole entry): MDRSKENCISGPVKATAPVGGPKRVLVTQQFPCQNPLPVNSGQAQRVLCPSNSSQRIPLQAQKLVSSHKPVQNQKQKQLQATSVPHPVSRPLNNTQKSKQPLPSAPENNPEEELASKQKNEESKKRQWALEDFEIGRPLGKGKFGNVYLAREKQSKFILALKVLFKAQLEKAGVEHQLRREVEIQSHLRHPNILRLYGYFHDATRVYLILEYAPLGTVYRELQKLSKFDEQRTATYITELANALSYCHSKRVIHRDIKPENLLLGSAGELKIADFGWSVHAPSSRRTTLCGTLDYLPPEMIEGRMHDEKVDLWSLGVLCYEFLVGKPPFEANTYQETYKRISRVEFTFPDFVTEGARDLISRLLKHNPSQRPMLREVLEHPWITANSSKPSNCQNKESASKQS

[2] = target: Angiopoietin-1 receptor (Homo sapiens) (UniProt Q02763); test: Inhibition of Tie2 (unknown origin) assessed as residual enzyme activity at 10 uM using TK Substrate 2 (poly Glu-Tyr) substrate
Chain of Angiopoietin-1 receptor (Homo sapiens) (Q02763 whole entry): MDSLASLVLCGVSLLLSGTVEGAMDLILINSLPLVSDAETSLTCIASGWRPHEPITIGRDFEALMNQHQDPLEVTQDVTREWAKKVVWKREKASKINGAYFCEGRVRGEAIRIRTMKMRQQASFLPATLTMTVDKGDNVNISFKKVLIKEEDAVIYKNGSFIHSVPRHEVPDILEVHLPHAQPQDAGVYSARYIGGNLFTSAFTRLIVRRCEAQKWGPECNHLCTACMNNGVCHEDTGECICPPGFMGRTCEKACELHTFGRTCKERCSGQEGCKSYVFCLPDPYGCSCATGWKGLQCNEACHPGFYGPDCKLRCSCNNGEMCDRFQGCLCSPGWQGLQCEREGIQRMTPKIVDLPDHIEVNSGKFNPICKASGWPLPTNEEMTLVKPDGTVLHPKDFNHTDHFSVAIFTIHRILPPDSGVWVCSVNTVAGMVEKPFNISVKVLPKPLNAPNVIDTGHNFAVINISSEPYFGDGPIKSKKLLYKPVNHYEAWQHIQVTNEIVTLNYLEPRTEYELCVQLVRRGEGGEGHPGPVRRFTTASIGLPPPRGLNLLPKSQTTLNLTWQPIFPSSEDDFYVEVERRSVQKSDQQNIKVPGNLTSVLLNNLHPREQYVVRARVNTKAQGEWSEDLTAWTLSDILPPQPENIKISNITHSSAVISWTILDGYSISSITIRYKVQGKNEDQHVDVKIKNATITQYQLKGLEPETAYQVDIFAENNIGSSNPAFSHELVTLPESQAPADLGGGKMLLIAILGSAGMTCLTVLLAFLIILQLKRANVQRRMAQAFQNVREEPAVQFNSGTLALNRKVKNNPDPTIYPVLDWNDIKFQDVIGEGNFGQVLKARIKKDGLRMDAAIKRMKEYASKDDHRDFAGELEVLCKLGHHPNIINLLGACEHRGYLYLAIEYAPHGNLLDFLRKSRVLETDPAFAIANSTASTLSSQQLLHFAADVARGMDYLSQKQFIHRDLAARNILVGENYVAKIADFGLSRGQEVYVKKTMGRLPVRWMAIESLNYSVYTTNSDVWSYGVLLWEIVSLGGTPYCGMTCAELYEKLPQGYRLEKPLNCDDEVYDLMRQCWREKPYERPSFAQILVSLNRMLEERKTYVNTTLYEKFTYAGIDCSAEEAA

[3] = target: Casein kinase II (Homo sapiens) (UniProt P67870+P68400+P19784); test: Inhibition of CK2 (unknown origin) assessed as residual enzyme activity at 10 uM using RRRDDDSDDD substrate peptide; type: protein-complex assay
[4] = target: T2, Mitogen-activated protein kinase kinase kinase 5 (Homo sapiens, UniProt Q99683); test: Inhibition of recombinant ASK1 catalytic subunit (unknown origin) using MBP substrate and gamma-labeled 32P ATP incubated for 20 mins by liquid scintillation counting method
T2 sequence (Q99683 whole entry): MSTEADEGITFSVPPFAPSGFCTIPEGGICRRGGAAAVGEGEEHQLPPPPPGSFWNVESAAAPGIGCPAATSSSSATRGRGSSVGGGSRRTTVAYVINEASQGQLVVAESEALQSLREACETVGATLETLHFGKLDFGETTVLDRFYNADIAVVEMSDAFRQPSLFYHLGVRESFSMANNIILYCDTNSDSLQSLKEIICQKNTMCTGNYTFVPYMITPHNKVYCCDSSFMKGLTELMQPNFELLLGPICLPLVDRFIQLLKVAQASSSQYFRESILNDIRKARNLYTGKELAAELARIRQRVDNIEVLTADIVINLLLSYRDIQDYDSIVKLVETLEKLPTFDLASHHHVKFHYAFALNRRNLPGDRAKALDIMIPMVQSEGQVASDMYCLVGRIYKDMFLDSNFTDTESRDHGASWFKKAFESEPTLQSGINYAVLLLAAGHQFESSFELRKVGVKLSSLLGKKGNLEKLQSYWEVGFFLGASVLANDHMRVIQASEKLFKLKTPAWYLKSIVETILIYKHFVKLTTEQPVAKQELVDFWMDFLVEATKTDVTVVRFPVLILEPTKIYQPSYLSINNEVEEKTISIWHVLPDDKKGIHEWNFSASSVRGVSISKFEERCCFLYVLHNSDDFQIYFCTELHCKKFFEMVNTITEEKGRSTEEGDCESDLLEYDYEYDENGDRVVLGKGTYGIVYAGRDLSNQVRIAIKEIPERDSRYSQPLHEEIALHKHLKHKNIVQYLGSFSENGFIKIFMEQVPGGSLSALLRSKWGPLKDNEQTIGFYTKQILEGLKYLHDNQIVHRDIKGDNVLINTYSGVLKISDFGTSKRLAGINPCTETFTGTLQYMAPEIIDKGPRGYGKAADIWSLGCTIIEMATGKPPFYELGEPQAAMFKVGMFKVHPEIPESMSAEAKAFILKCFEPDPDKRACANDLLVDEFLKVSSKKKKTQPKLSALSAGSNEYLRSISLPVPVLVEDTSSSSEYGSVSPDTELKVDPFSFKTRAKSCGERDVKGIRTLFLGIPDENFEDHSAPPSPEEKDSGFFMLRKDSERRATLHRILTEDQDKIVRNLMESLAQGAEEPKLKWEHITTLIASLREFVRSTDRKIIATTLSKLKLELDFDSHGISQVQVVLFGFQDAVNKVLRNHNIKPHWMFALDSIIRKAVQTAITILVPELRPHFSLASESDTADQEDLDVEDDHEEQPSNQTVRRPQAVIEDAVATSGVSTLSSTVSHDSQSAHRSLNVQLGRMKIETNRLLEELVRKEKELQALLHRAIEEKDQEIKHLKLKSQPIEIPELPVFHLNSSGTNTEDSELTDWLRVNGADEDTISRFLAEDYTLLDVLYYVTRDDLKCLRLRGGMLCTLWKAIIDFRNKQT

[5] = target: T3, Mitogen-activated protein kinase kinase kinase 5 (Homo sapiens) (UniProt Q99683); test: Inhibition of recombinant ASK1 catalytic subunit (unknown origin) assessed as residual enzyme activity at 10 uM using MBP substrate and gamma-labeled 32P ATP incubated for 20 mins by liquid scintillation counting method
T3 sequence (whole entry): T2 sequence (Q99683 whole entry)

[6] = target: Fibroblast growth factor receptor 1 (Homo sapiens) (UniProt P11362); test: Inhibition of FGFR1 (unknown origin) assessed as residual enzyme activity at 10 uM using IGF-IRtide (12 to 527) substrate
Chain of Fibroblast growth factor receptor 1 (Homo sapiens) (P11362 22-822 limits assumed): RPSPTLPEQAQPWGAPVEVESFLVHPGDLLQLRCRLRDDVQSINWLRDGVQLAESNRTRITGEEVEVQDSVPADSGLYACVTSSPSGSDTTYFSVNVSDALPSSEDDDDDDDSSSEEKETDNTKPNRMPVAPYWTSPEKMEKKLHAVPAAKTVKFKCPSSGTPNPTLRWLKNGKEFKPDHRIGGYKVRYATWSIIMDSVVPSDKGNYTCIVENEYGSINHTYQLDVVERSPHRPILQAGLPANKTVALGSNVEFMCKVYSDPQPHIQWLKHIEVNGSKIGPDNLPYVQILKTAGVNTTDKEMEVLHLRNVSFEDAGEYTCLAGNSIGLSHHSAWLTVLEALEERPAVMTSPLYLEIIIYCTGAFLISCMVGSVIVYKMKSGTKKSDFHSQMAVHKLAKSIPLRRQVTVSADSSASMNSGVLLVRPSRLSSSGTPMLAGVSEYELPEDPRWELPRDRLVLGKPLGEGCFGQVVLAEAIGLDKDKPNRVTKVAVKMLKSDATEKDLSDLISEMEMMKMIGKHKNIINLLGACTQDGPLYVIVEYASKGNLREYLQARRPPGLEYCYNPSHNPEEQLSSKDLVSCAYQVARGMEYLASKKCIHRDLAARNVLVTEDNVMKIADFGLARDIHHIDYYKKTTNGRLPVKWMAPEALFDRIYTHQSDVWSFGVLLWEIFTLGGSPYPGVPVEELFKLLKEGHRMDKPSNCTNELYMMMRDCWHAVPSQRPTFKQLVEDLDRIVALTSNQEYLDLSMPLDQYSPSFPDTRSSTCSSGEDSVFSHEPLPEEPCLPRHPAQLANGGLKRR

[7] = target: Mitogen-activated protein kinase 10 (Homo sapiens) (UniProt P53779); test: Inhibition of JNK3 (unknown origin) assessed as residual enzyme activity at 10 uM using JNK3tide substrate
Chain of Mitogen-activated protein kinase 10 (Homo sapiens) (P53779 whole entry): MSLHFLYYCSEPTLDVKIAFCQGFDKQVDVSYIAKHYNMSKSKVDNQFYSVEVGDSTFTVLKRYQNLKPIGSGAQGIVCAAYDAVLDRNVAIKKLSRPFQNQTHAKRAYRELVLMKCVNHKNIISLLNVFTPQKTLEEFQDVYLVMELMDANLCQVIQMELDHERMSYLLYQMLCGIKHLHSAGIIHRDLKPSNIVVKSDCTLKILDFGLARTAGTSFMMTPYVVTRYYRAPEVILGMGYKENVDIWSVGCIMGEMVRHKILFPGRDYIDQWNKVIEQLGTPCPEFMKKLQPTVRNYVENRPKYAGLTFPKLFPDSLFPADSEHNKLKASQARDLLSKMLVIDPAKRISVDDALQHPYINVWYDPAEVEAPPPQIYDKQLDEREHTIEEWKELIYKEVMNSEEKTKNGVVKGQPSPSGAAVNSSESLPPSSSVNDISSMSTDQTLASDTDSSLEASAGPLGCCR

| SMILES | Activity [1] | Activity [2] | Activity [3] | IC50 [4] | Activity [5] | Activity [6] | Activity [7] |
| --- | --- | --- | --- | --- | --- | --- | --- |
| CCCCOc1ccc(C2C(C(=O)c3ccc4c(c3)OCCO4)=C(O)C(=O)N2c2nc3ccc(C)cc3s2)cc1 (stereo not drawn) | 20.5% | 94.2% | 85.6% | 4.6 µM | 19.8% | 58.1% | 100% |
| COc1ccc(C(=O)C2=C(O)C(=O)N(c3nc4ccc(F)cc4s3)C2c2cccc(F)c2)cc1 (stereo not drawn) |  |  |  | 17 µM |  |  |  |
| Cc1ccc(C(=O)C2=C(O)C(=O)N(c3nc4ccc(F)cc4s3)C2c2ccc(C(C)(C)C)cc2)o1 (stereo not drawn) | 100% | 100% | 68.3% | 1.55 µM | 32.6% | 92.7% | 100% |
| CCCCCOc1ccc(C2C(C(=O)c3ccc4c(c3)CC(C)O4)=C(O)C(=O)N2c2nc3ccc(F)cc3s2)cc1 (stereo not drawn) | 28.4% | 68.4% | 92.6% | 0.75 µM | 18.1% | 26.9% | 100% |
| Cc1ccc2nc(N3C(=O)C(O)=C(C(=O)c4ccc(F)cc4)C3c3ccc(Cl)cc3)sc2c1 (stereo not drawn) |  |  |  | 2.9 µM |  |  |  |
| COc1ccc2nc(N3C(=O)C(O)=C(C(=O)c4ccco4)C3c3ccc(Cl)cc3)sc2c1 (stereo not drawn) | 48.1% | 66.4% | 73.9% | 4.2 µM | 39.1% | 46.4% | 96.8% |
| CC(C)(C)c1ccc(C2C(C(=O)c3ccc4c(c3)OCCO4)=C(O)C(=O)N2c2nc3ccc(Cl)cc3s2)cc1 (stereo not drawn) | 52.9% | 92.5% | 83.6% | 2.5 µM | 12.3% | 46.8% | 100% |
| CCCCCOc1ccc(C2C(C(=O)c3ccc4c(c3)OCCO4)=C(O)C(=O)N2c2nc3ccc(C)cc3s2)cc1 (stereo not drawn) | 28.1% | 59.9% | 90% | 5.2 µM | 13.2% | 25.5% | 92.5% |
| CCCCOc1ccc(C2C(C(=O)c3ccc4c(c3)OCCO4)=C(O)C(=O)N2c2nc3ccc(Cl)cc3s2)cc1OCC (stereo not drawn) | 28.8% | 78.8% | 89.7% | 3.6 µM | 19.7% | 18% | 100% |
| COc1ccccc1C1C(C(=O)c2ccc(C)o2)=C(O)C(=O)N1c1nc2c(C)cc(C)cc2s1 (stereo not drawn) |  |  |  | 35.5 µM |  |  |  |
| Cc1ccc(C(=O)C2=C(O)C(=O)N(c3nc4ccc(F)cc4s3)C2c2ccc(C(C)(C)C)cc2)cc1 (stereo not drawn) |  |  |  | 7.6 µM |  |  |  |
| COc1ccc(C2C(C(=O)c3ccc(C)o3)=C(O)C(=O)N2c2nc3ccc(C)cc3s2)cc1OC (stereo not drawn) |  |  |  | 38 µM |  |  |  |
| O=C(C1=C(O)C(=O)N(c2nc3ccc(F)cc3s2)C1c1cccc(Cl)c1)c1ccco1 (stereo not drawn) |  |  |  | 28.2 µM |  |  |  |
| CCOc1ccc2nc(N3C(=O)C(O)=C(C(=O)c4ccccc4)C3c3ccc(Cl)cc3)sc2c1 (stereo not drawn) | 36.5% | 62.8% | 79.3% | 4.2 µM | 16.2% | 65.7% | 100% |
| Cc1cc(C)c2nc(N3C(=O)C(O)=C(C(=O)c4ccc(Cl)cc4)C3c3ccc(C(C)C)cc3)sc2c1 (stereo not drawn) |  |  |  | 6.3 µM |  |  |  |
| Cc1cc(C)c2nc(N3C(=O)C(O)=C(C(=O)c4ccco4)C3c3ccccc3)sc2c1 (stereo not drawn) |  |  |  | 63 µM |  |  |  |
| CCCOc1ccc(C2C(C(=O)c3ccc4c(c3)OCCO4)=C(O)C(=O)N2c2nc3ccc(Cl)cc3s2)cc1 (stereo not drawn) |  |  |  | 5 µM |  |  |  |
| CCOc1ccc2nc(N3C(=O)C(O)=C(C(=O)c4ccc(C)cc4)C3c3ccc(C(C)(C)C)cc3)sc2c1 (stereo not drawn) | 52% | 100% | 97.8% | 2 µM | 23.5% | 40.3% | 100% |
| O=C(C1=C(O)C(=O)N(c2nc3ccc(F)cc3s2)C1c1cccc(Cl)c1)c1cccs1 (stereo not drawn) | 28.1% | 63.5% | 71.5% | 4.5 µM | 27.6% | 74.4% | 89.9% |

The remaining lines, values ahead:

| Activity [1] | Activity [2] | Activity [3] | IC50 [4] | Activity [5] | Activity [6] | Activity [7] | SMILES |
| --- | --- | --- | --- | --- | --- | --- | --- |
|  |  |  | 2 µM |  |  |  | Cc1cc(C)c2nc(N3C(=O)C(O)=C(C(=O)c4ccc(C)o4)C3c3ccc(C(C)C)cc3)sc2c1 (stereo not drawn) |
|  |  |  | 4.4 µM |  |  |  | Cc1ccc(C(=O)C2=C(O)C(=O)N(c3nc4ccc(C)cc4s3)C2c2ccc(C(C)(C)C)cc2)cc1 (stereo not drawn) |
| 35.2% | 100% | 99.3% | 5.2 µM | 15.8% | 36.2% | 100% | CCCCOc1ccc(C2C(C(=O)c3ccc4c(c3)OCCO4)=C(O)C(=O)N2c2nc3ccc(Cl)cc3s2)cc1 (stereo not drawn) |
|  |  |  | 29.5 µM |  |  |  | O=C(C1=C(O)C(=O)N(c2nc3ccc(F)cc3s2)C1c1cccc(Br)c1)c1ccco1 (stereo not drawn) |
|  |  |  | 28.2 µM |  |  |  | Cc1ccc2nc(N3C(=O)C(O)=C(C(=O)c4ccco4)C3c3ccc(Br)cc3)sc2c1 (stereo not drawn) |
| 44.7% | 100% | 83.4% | 0.52 µM | 14% | 100% | 100% | CC(C)CCOc1cccc(C2C(C(=O)c3ccc4c(c3)CC(C)O4)=C(O)C(=O)N2c2nc3ccc(F)cc3s2)c1 (stereo not drawn) |
| 49.5% | 99.2% | 81.8% | 2 µM | 43% | 22.6% | 80% | CCCOc1ccc(C2C(C(=O)c3ccc4c(c3)OCCO4)=C(O)C(=O)N2c2nc3ccc(C)cc3s2)cc1 (stereo not drawn) |
|  |  |  | 5.5 µM |  |  |  | CCOc1ccc(C(=O)C2=C(O)C(=O)N(c3nc4ccc(C)cc4s3)C2c2ccc(F)cc2)cc1 (stereo not drawn) |
|  |  |  | 9.1 µM |  |  |  | CCOc1ccc(C2C(C(=O)c3cccs3)=C(O)C(=O)N2c2nc3ccc(C)cc3s2)cc1 (stereo not drawn) |
| 45.4% | 83.2% | 79.9% | 4.4 µM | 27% | 88.7% | 100% | CCOc1ccc2nc(N3C(=O)C(O)=C(C(=O)c4cccs4)C3c3ccc(C)cc3)sc2c1 (stereo not drawn) |
|  |  |  | 31 µM |  |  |  | Cc1ccc2nc(N3C(=O)C(O)=C(C(=O)c4ccco4)C3c3cccc(Br)c3)sc2c1 (stereo not drawn) |
|  |  |  | 42.6 µM |  |  |  | O=C(C1=C(O)C(=O)N(c2nc3ccc(F)cc3s2)C1c1cccc(F)c1)c1ccco1 (stereo not drawn) |
|  |  |  | 30.2 µM |  |  |  | Cc1ccc2nc(N3C(=O)C(O)=C(C(=O)c4ccco4)C3c3ccc(Cl)cc3)sc2c1 (stereo not drawn) |
|  |  |  | 28.2 µM |  |  |  | O=C(C1=C(O)C(=O)N(c2nc3ccc(F)cc3s2)C1c1ccc(Br)cc1)c1ccco1 (stereo not drawn) |
|  |  |  | 5 µM |  |  |  | CCOc1ccc2nc(N3C(=O)C(O)=C(C(=O)c4ccccc4)C3c3ccc(C(C)(C)C)cc3)sc2c1 (stereo not drawn) |
